Experimental data as given in paper PMC4076210, “Discovery of Novel AKT Inhibitors with Enhanced Anti-Tumor Effects in Combination with the MEK Inhibitor” (PLoS ONE, 2014).
Where two headings read alike, the source gives them in different places.

How the values were obtained:
Format in all cases: biochemical
[1] = biological target: T1, EGFR(L858R)(h) (Homo sapiens, UniProt P00533, L858R); experiment: Kinase panel
T1 construct: purchased Millipore KinaseProfiler

[2] = biological target: T2, Mnk2(h) (Homo sapiens, UniProt Q9HBH9); experiment: Kinase panel
T2 construct: purchased Millipore KinaseProfiler

[3] = biological target: PKA (Homo sapiens, UniProt P17612); experiment: Kinase IC50 assay
[4] = biological target: T3, EphA4(h) (Homo sapiens, UniProt P54764); experiment: Kinase panel
T3 construct: purchased Millipore KinaseProfiler

[5] = biological target: T4, JNK3(h) (Homo sapiens, UniProt P53779); experiment: Kinase panel
T4 construct: purchased Millipore KinaseProfiler

[6] = biological target: T5, TBK1(h) (Homo sapiens, UniProt Q9UHD2); experiment: Kinase panel
T5 construct: purchased Millipore KinaseProfiler
T5 sequence (Q9UHD2 1-729): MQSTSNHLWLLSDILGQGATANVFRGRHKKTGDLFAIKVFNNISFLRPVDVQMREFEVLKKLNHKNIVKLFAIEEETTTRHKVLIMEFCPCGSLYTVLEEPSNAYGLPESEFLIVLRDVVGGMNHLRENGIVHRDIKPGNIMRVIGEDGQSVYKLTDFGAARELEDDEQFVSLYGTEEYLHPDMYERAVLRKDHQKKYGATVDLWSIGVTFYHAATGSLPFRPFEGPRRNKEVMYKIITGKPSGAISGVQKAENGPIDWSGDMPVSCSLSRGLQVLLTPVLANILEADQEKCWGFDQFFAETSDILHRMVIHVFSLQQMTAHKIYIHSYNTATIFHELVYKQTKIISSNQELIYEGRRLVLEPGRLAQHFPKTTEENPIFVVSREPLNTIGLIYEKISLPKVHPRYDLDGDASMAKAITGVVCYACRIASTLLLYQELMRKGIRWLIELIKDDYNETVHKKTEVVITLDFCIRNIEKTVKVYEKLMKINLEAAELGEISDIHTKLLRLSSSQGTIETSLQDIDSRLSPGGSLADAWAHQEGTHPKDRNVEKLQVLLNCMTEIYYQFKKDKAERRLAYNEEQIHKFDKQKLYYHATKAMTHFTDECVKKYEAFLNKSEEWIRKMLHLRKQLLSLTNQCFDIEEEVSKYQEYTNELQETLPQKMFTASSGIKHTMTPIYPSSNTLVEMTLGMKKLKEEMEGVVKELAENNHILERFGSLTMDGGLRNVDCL

[7] = biological target: T6, FGFR2(N549H)(h) (Homo sapiens, UniProt P21802, N549H); experiment: Kinase panel
T6 construct: purchased Millipore KinaseProfiler

[8] = biological target: T7, NEK3(h) (Homo sapiens, UniProt P51956); experiment: Kinase panel
T7 construct: purchased Millipore KinaseProfiler
T7 sequence (P51956 1-506): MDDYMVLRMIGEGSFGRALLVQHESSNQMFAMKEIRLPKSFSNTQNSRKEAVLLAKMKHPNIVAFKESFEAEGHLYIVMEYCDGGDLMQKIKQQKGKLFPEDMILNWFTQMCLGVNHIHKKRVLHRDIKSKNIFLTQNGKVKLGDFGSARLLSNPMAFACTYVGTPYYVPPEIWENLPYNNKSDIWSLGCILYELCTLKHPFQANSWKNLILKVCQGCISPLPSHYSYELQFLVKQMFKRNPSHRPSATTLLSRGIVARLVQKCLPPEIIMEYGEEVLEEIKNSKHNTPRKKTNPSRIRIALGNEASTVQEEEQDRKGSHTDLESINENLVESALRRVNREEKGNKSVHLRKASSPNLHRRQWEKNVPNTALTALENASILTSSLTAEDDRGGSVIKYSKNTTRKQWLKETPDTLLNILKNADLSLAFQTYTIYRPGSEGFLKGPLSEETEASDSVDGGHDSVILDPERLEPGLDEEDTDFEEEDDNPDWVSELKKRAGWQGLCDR

[9] = biological target: T8, MLK1(h) (Homo sapiens, UniProt P80192); experiment: Kinase panel
T8 construct: purchased Millipore KinaseProfiler

[10] = biological target: PKCε (Homo sapiens, UniProt Q02156); experiment: Kinase IC50 assay
[11] = biological target: T9, DRAK1(h) (Homo sapiens, UniProt Q9UEE5); experiment: Kinase panel
T9 construct: purchased Millipore KinaseProfiler
T9 sequence (Q9UEE5 1-414): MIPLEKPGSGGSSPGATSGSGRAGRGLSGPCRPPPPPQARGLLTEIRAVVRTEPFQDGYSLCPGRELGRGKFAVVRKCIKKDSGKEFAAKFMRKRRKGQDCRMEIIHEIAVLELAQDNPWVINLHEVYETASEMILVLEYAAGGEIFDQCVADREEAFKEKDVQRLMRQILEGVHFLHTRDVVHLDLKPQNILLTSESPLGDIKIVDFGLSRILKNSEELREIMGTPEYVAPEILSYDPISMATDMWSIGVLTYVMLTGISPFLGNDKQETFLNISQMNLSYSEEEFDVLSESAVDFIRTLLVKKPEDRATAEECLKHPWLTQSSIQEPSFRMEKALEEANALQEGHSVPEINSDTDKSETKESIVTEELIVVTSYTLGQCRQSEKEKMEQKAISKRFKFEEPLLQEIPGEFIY

[12] = biological target: T10, c-RAF(h) (Homo sapiens, UniProt P04049); experiment: Kinase panel
T10 construct: purchased Millipore KinaseProfiler

[13] = biological target: PKCβ1 (Homo sapiens, UniProt P05771); experiment: Kinase IC50 assay
[14] = biological target: T11, PDGFRα(h) (Homo sapiens, UniProt P16234); experiment: Kinase panel
T11 construct: purchased Millipore KinaseProfiler

[15] = biological target: T12, PKBβ(h) (Homo sapiens, UniProt P31751); experiment: Kinase panel
T12 construct: purchased Millipore KinaseProfiler

[16] = biological target: T13, PKBα(h) (Homo sapiens, UniProt P31749); experiment: Kinase panel
T13 construct: purchased Millipore KinaseProfiler

T1 sequence (P00533 25-1210 L858R): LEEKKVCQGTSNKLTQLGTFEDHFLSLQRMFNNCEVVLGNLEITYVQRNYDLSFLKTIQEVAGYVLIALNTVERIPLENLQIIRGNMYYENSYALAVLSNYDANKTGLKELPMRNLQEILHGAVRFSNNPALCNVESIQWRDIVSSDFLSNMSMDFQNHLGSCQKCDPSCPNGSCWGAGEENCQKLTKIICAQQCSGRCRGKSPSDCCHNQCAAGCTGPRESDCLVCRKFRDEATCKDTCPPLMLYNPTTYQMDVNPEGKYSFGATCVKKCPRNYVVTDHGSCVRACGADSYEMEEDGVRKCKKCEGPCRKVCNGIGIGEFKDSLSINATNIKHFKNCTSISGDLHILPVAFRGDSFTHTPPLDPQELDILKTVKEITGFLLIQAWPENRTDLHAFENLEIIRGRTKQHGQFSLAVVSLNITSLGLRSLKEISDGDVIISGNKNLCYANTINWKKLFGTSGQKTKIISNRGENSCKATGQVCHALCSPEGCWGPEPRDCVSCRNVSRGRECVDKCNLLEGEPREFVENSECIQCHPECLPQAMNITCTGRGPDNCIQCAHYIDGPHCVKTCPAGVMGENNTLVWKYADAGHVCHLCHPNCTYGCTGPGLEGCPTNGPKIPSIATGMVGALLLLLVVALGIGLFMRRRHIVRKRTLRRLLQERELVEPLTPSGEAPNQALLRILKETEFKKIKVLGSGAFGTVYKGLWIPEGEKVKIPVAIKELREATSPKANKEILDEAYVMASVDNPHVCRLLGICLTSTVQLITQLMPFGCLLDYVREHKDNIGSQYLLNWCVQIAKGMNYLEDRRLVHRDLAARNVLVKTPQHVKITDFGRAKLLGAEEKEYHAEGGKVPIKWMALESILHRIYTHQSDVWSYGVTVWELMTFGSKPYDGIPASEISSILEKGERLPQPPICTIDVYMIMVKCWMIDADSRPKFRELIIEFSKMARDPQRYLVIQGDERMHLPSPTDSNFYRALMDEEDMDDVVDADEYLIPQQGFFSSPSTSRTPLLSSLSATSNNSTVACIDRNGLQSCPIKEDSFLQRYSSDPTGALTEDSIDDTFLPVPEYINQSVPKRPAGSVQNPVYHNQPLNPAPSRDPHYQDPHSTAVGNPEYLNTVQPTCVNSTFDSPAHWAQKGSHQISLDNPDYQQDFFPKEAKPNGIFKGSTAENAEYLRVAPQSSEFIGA
T11 sequence (P16234 24-1089): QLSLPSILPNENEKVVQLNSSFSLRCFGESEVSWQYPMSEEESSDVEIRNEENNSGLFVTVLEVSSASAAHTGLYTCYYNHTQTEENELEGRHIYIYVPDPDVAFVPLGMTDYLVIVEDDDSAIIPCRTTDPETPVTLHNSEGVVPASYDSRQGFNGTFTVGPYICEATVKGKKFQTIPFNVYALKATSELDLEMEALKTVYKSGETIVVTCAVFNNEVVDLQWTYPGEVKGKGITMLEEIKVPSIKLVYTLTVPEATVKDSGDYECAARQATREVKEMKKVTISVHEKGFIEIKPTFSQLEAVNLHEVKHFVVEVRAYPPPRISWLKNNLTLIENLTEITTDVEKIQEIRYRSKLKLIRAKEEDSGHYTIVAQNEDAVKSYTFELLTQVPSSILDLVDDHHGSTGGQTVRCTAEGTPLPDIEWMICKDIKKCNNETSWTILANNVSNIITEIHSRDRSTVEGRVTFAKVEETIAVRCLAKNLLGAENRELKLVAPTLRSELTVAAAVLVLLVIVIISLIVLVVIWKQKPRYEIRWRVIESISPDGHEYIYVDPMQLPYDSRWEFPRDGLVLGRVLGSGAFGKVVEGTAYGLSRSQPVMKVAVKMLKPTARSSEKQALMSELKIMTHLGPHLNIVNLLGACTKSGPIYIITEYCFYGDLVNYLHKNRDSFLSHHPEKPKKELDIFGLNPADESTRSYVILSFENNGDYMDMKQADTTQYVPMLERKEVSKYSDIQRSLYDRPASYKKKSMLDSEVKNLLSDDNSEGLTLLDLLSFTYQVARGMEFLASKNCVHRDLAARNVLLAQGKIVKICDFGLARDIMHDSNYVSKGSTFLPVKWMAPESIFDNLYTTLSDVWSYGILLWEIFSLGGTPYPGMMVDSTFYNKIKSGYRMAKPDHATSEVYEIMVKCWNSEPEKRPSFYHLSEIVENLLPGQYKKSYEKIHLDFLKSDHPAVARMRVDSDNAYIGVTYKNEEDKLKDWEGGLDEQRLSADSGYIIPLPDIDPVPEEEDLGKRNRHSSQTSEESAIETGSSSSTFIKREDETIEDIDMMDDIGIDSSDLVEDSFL
T4 sequence (P53779 whole entry): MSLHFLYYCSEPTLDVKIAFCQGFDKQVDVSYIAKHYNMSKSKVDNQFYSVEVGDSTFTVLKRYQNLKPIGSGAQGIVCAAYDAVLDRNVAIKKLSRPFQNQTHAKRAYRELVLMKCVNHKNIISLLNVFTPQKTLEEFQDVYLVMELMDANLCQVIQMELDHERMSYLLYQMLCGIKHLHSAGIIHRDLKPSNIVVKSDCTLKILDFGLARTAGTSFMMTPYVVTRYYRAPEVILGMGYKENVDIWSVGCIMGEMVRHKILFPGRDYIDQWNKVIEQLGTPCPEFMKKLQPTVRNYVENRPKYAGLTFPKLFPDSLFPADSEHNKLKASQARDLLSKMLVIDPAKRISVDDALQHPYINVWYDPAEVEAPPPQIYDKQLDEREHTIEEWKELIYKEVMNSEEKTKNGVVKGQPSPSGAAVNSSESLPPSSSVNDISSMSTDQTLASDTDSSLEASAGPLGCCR
T10 sequence (P04049 whole entry): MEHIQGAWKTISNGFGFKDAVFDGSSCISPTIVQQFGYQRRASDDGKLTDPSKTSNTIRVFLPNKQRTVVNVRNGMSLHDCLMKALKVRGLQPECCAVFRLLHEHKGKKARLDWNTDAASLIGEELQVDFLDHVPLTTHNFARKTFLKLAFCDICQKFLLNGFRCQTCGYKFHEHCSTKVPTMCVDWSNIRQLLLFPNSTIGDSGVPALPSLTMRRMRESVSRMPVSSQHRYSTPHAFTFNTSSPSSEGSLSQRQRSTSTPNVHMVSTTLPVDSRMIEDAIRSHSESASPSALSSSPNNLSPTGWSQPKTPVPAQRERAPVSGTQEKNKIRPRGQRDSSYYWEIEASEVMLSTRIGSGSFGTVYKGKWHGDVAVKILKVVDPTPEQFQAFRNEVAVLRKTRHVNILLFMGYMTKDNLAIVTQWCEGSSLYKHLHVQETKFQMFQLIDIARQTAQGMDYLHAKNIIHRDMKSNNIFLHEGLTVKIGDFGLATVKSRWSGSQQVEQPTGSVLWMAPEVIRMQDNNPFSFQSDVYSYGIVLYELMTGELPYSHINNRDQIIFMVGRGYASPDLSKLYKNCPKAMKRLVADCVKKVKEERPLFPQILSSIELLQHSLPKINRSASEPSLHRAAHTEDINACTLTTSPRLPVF
T6 sequence (P21802 22-821 N549H): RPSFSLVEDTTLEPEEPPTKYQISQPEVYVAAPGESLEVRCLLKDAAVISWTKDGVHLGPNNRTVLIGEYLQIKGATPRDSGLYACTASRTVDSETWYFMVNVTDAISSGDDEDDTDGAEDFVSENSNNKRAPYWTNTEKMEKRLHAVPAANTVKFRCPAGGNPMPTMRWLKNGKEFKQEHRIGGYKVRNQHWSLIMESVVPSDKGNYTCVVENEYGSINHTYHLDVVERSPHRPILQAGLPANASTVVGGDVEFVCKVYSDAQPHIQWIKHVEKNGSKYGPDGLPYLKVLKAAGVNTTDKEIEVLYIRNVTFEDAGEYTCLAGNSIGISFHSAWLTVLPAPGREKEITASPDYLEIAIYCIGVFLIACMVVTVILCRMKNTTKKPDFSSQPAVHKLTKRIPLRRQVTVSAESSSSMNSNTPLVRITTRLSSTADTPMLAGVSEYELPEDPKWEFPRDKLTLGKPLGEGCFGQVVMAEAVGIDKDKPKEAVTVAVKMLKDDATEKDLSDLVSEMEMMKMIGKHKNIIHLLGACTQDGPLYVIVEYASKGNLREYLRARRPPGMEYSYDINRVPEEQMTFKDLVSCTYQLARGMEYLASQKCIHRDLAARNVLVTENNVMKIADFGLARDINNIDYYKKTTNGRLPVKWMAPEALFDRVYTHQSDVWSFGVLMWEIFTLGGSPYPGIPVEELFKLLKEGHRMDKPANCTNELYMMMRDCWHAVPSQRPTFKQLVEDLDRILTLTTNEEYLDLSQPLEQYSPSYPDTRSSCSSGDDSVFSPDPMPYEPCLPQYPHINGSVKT
T2 sequence (Q9HBH9 whole entry): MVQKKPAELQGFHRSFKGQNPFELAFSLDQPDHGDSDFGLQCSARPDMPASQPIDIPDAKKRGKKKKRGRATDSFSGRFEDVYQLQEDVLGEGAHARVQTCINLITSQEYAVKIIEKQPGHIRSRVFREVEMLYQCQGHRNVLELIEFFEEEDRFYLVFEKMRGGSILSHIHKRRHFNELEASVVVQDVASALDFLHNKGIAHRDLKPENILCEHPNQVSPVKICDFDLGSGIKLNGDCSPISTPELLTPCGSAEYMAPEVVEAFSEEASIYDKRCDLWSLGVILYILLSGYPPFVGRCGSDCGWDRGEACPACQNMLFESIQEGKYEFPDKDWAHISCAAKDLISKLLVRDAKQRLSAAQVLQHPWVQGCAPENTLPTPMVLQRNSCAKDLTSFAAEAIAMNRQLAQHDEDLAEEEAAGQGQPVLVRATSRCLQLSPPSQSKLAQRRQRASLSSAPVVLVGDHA

Question: How did the inhibition at 0.5 µM [1] turn out when Cn1ncc(Cl)c1-c1cc(C(=O)N[C@H](CN)Cc2cccc(F)c2)sc1Cl [GSK2110183] was run?
Answer: Its inhibition at 0.5 µM is 3%.

Question: What about the inhibition at 10 µM [1] of the same compound?
Answer: Its inhibition at 10 µM is 15%.

Question: What about the inhibition at 0.5 µM [2] of the same compound?
Answer: Its inhibition at 0.5 µM is 22%.

Question: And the inhibition at 10 µM [2]?
Answer: The inhibition at 10 µM was 84%.

Question: What about the IC50 [3] of the same compound?
Answer: The IC50 was 1.3 nM.

Question: What about the inhibition at 0.5 µM [4] of the same compound?
Answer: The inhibition at 0.5 µM was -1%.

Question: And the inhibition at 10 µM [4]?
Answer: The inhibition at 10 µM was -12%.

Question: And the inhibition at 0.5 µM [5]?
Answer: The inhibition at 0.5 µM was -5%.

Question: And the inhibition at 10 µM [5]?
Answer: The inhibition at 10 µM was 6%.

Question: And the inhibition at 0.5 µM [6]?
Answer: The inhibition at 0.5 µM was 1%.

Question: And the inhibition at 10 µM [6]?
Answer: Its inhibition at 10 µM is 2%.

Question: What about the inhibition at 0.5 µM [7] of the same compound?
Answer: The inhibition at 0.5 µM was -1%.

Question: What about the inhibition at 10 µM [7] of the same compound?
Answer: The inhibition at 10 µM was -1%.

Question: What about the inhibition at 0.5 µM [8] of the same compound?
Answer: Its inhibition at 0.5 µM is -14%.

Question: And the inhibition at 10 µM [8]?
Answer: The inhibition at 10 µM was -10%.

Question: And the inhibition at 0.5 µM [9]?
Answer: The inhibition at 0.5 µM was -8%.

Question: And the inhibition at 10 µM [9]?
Answer: The inhibition at 10 µM was 11%.

Question: And the IC50 [10]?
Answer: Its IC50 is > 1000 nM.

Question: And the inhibition at 0.5 µM [11]?
Answer: Its inhibition at 0.5 µM is 10%.

Question: What about the inhibition at 10 µM [11] of the same compound?
Answer: Its inhibition at 10 µM is 40%.

Question: And the inhibition at 0.5 µM [12]?
Answer: The inhibition at 0.5 µM was -2%.

Question: And the inhibition at 10 µM [12]?
Answer: The inhibition at 10 µM was 11%.

Question: What about the IC50 [13] of the same compound?
Answer: The IC50 was 430 nM.

Question: What about the inhibition at 0.5 µM [14] of the same compound?
Answer: Its inhibition at 0.5 µM is -2%.

Question: And the inhibition at 10 µM [14]?
Answer: The inhibition at 10 µM was -2%.

Question: Which inhibition at 0.5 µM ([1]; 0.5 µM, read-out: % Inhibition) does the source give for Cn1ncc(Cl)c1-c1cc(C(=O)N[C@H](CN)Cc2ccc(F)c(F)c2)oc1Cl [GSK2141795] here?
Answer: The inhibition at 0.5 µM was 3%.

Question: And the inhibition at 10 µM ([1]; 10 µM, read-out: % Inhibition)?
Answer: Its inhibition at 10 µM is 24%.

Question: And the inhibition at 0.5 µM ([15]; 0.5 µM)?
Answer: The inhibition at 0.5 µM was 95%.

Question: What about the inhibition at 10 µM ([15]; 10 µM) of the same compound?
Answer: Its inhibition at 10 µM is 99%.

Question: What about the inhibition at 0.5 µM ([2]; 0.5 µM, read-out: % Inhibition) of the same compound?
Answer: The inhibition at 0.5 µM was 9%.

Question: And the inhibition at 10 µM ([2]; 10 µM, read-out: % Inhibition)?
Answer: Its inhibition at 10 µM is 80%.

Question: And the IC50 [3]?
Answer: Its IC50 is 2 nM.

Question: What about the inhibition at 0.5 µM ([4]; 0.5 µM, read-out: % Inhibition) of the same compound?
Answer: The inhibition at 0.5 µM was -10%.

Question: What about the inhibition at 10 µM ([4]; 10 µM, read-out: % Inhibition) of the same compound?
Answer: Its inhibition at 10 µM is -8%.

Question: And the inhibition at 0.5 µM ([5]; 0.5 µM, read-out: % Inhibition)?
Answer: The inhibition at 0.5 µM was -5%.

Question: And the inhibition at 10 µM ([5]; 10 µM, read-out: % Inhibition)?
Answer: Its inhibition at 10 µM is 3%.

Question: And the inhibition at 0.5 µM ([6]; 0.5 µM, read-out: % Inhibition)?
Answer: The inhibition at 0.5 µM was 1%.

Question: What about the inhibition at 10 µM ([6]; 10 µM, read-out: % Inhibition) of the same compound?
Answer: Its inhibition at 10 µM is 4%.

Question: And the inhibition at 0.5 µM ([7]; 0.5 µM, read-out: % Inhibition)?
Answer: Its inhibition at 0.5 µM is -2%.

Question: What about the inhibition at 10 µM ([7]; 10 µM, read-out: % Inhibition) of the same compound?
Answer: The inhibition at 10 µM was -5%.

Question: And the inhibition at 0.5 µM ([8]; 0.5 µM, read-out: % Inhibition)?
Answer: Its inhibition at 0.5 µM is 6%.

Question: What about the inhibition at 10 µM ([8]; 10 µM, read-out: % Inhibition) of the same compound?
Answer: Its inhibition at 10 µM is 12%.

Question: And the inhibition at 0.5 µM ([9]; 0.5 µM, read-out: % Inhibition)?
Answer: Its inhibition at 0.5 µM is -14%.

Question: And the inhibition at 10 µM ([9]; 10 µM, read-out: % Inhibition)?
Answer: Its inhibition at 10 µM is 45%.

Question: What about the inhibition at 0.5 µM ([16]; 0.5 µM) of the same compound?
Answer: Its inhibition at 0.5 µM is 99%.

Question: And the inhibition at 10 µM ([16]; 10 µM)?
Answer: The inhibition at 10 µM was 99%.

Question: And the IC50 [10]?
Answer: Its IC50 is > 1000 nM.

Question: What about the inhibition at 0.5 µM ([11]; 0.5 µM, read-out: % Inhibition) of the same compound?
Answer: The inhibition at 0.5 µM was -18%.

Question: And the inhibition at 10 µM ([11]; 10 µM, read-out: % Inhibition)?
Answer: The inhibition at 10 µM was 24%.

Question: And the inhibition at 0.5 µM ([12]; 0.5 µM, read-out: % Inhibition)?
Answer: Its inhibition at 0.5 µM is -4%.

Question: And the inhibition at 10 µM ([12]; 10 µM, read-out: % Inhibition)?
Answer: The inhibition at 10 µM was 13%.

Question: What about the inhibition at 0.5 µM ([14]; 0.5 µM, read-out: % Inhibition) of the same compound?
Answer: Its inhibition at 0.5 µM is -4%.

Question: And the inhibition at 10 µM ([14]; 10 µM, read-out: % Inhibition)?
Answer: The inhibition at 10 µM was -4%.
